This experiment has as its system CEM cells HIV-1 protection, formazan growth assay. Put plainly: NCI AIDS Antiviral Assay. To be noted: for IC50: measured here: growth of uninfected CEM cells. In short, it runs like this: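 Human CEM cells, uninfected and HIV-1-infected, received five drug concentrations, and growth was read by soluble formazan assay. Compounds giving at least 50% protection were retested; reproducible 100% protection defined confirmed active.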

Consider 46 compounds from PubChem BioAssay AID179 (DTP/NCI, 2004).

Active and inactive are the calls of the source.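 Rule for the calls: active = compounds giving half or more protection of infected cells from virus-caused growth loss, again on retest; inactive = the rest.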 Where a SMILES comes first, the peptide text is derived from it. Side-chain parts run from the residue outwards. The star is where a group is joined. Cbz = O=C(OCc1ccccc1)*; Boc = CC(C)(C)OC(=O)* Some results are limits rather than exact numbers.

Usually EC50 stands for the midpoint of the concentration-response curve. One may read the IC50 as the concentration needed to halve the response being measured. As for `COc1ccc(NC(=O)Oc2ccc3c(C)cc(=O)oc3c2)c(OC)c1` (tested in a mixture with another compound), the EC50 was greater than 100 µM and the half-maximal inhibitory concentration (IC50) amounted to 46.8 µM.
As for `CCOC(=O)C(=O)/C(=C/n1c(=S)[nH]c2cc(C)ccc21)C(=O)OCC`, the EC50 is greater than 200 µM and the half-inhibitory concentration (IC50) is greater than 200 µM.
For `C[C@@H](CC(=O)O)OC1OC(COC(=O)C(C)(C)C)C(OC(=O)C(C)(C)C)C(OC(=O)C(C)(C)C)C1OC(=O)C(C)(C)C` (some centres undefined), the EC50 was greater than 200 µM and the IC50 is 27.5 µM.
The corresponding values for `O=C(COc1ccc2c(=O)cc(-c3ccccc3)oc2c1)N1CCN(c2ccccc2)CC1` are greater than 16.2 µM and greater than 16.2 µM.
The corresponding values for `CC1=C(O)C(=O)C(C2=C(O)C(=O)C(C)=C(O)C2=O)=C(O)C1=O` are greater than 263 µM and 145 µM.
With `COc1cc(CC2C(O)C3CCN2CC3)cc(OC)c1OC` (centres undefined), the outcome was inactive.
For `CC(=O)Oc1c(C)cc2c(c1C)C(C)CN2C(C)=O` (centres undefined), the EC50 is greater than 200 µM and the IC50 is greater than 200 µM.
As to `O=C1NC(=O)C(=Cn2c(=S)sc3ccccc32)C(=O)N1`, the EC50 was greater than 200 µM and the concentration for half-maximal inhibition (IC50) was greater than 200 µM.
For `CC(C)NC(=O)CCN(C(=O)O)S(=O)(=O)c1ccc(NC(=O)c2ccccc2)cc1`, the EC50 was greater than 575 µM and the IC50 is greater than 575 µM.
In the case of `O=C1/C(=C/c2ccc(O)cc2)CCCC1CN1CCCCC1` (centres undefined), the EC50 was greater than 2 µM and the concentration for half-maximal inhibition (IC50) worked out at 1.86 µM.
Taken in the same sequence, the figures for `O=C1C2Nc3ccccc3SC2C(=O)N1c1ccccc1C(F)(F)F` (centres undefined) were greater than 20 µM and 15.1 µM.
For the compound `COC1=CC(=O)OC(/C=C(C)/C=C/C2=C(C)CCCC2(C)C)C1` (centres undefined), the outcome was inactive.
With `CN1CCN(C(=S)N2CCN(C)CC2)CC1`, the EC50 was greater than 2 µM and the 50% inhibitory concentration (IC50) was found to be 1.91 µM.
The corresponding values for `O=CC1CCCc2ccccc21` (centres undefined) are greater than 44.7 µM and greater than 44.7 µM.
In the case of `C=C(C)Cn1c(=O)n(CC(=C)C)c(=O)n(CC(=C)C)c1=O`, the EC50 was greater than 200 µM and the concentration for half-maximal inhibition (IC50) stood at 81.3 µM.
Regarding `C/C(=C1/N=C(c2cc([N+](=O)[O-])ccc2Cl)N(C2=CC=C(Cl)CC2)C1=O)c1cc2ccccc2oc1=O`, the EC50 is greater than 19.1 µM and the half-maximal inhibitory concentration (IC50) was greater than 19.1 µM.
Regarding `O=[N+]([O-])C(=C1c2ccccc2-c2ccccc21)[N+](=O)[O-]`, the EC50 was greater than 135 µM and the IC50 turned out to be 18.2 µM.
Take `Cc1nc2sccn2c1C(=O)NNC(N)=S`: the EC50 was greater than 372 µM and the IC50 is greater than 372 µM.
`O=C(O)c1ccc(S(=O)(=O)c2ccc(C(=O)O)c(C(=O)O)c2)cc1C(=O)O`: the EC50 is greater than 200 µM and the IC50 was found to be 191 µM.
Taken in the same sequence, the figures for `C=[N+]([O-])CCC1(O)C(CO[Si](C)(C)C(C)(C)C)OC(n2ccc(=O)[nH]c2=O)C1O[Si](C)(C)C(C)(C)C` (centres undefined) were greater than 200 µM and 12 µM.
In the case of `C=C1CC2[C@H](C)C(=O)CCC2(C)C2=C1C1CCC(C(C)CCC(=C)C(C)C(=O)O)C1(C)CC2=O` (some centres undefined), the EC50 was greater than 200 µM and the IC50 came to 66.1 µM.
Consider `N=C(N)c1ccc2oc3ccc(C(=N)N)cc3c(=O)c2c1`, for which the outcome was inactive.
Turning to `N#CSC#Cc1ccc(C#CSC#N)cc1`, the EC50 is greater than 200 µM and the half-maximal inhibitory concentration (IC50) amounted to 2.4 µM.
Regarding `COC(=O)C1CCCCCCCCCCC12SCCCS2` (centres undefined), the EC50 is greater than 200 µM and the concentration for half-maximal inhibition (IC50) is greater than 200 µM.
Take `O=[N+]([O-])c1ccc(OCCC[P+](c2ccccc2)(c2ccccc2)c2ccccc2)c(Cl)c1`: the EC50 is greater than 200 µM and the IC50 stood at 1.7 µM.
Taken in the same sequence, the figures for `Cn1cnc2c1c(=O)n(CCNCCO)c(=O)n2C` were greater than 200 µM and greater than 200 µM.
The corresponding values for `O/N=C1/COC(C(F)(F)F)(C(F)(F)F)C1` are greater than 200 µM and greater than 200 µM.
Take `C/C(O)=C(\C=N\C(N)=S)C(=O)Nc1ccccc1`: the EC50 is greater than 200 µM and the half-maximal inhibitory concentration (IC50) was greater than 200 µM.
Consider `COC1=NS(=O)(=O)C2(O1)c1ccccc1-c1ccccc12`, for which the EC50 is greater than 117 µM and the IC50 was found to be 89.1 µM.
For the compound `CC(C)CC(NC(=O)OCc1ccccc1)C(=O)NCCCCC(NC(=O)C(CCCCNC(=O)C(CC(C)C)NC(=O)OCc1ccccc1)NC(=O)C(CCCCNC(=O)C(CC(C)C)NC(=O)OCc1ccccc1)NC(=O)C(CCCCNC(=O)C(CC(C)C)NC(=O)OCc1ccccc1)NC(=O)OC(C)(C)C)C(=O)O` (centres undefined) (Boc-K([Leu-Cbz])K([Leu-Cbz])K([Leu-Cbz])K([Leu-Cbz])-OH; configuration not given here), the EC50 was greater than 100 µM and the half-maximal inhibitory concentration (IC50) was greater than 100 µM.
On to `CC1(C)[C@H]2Cc3cc4nc5ccccn5c4cc3[C@@H]1C2`, for which the EC50 is greater than 200 µM and the IC50 amounted to 24 µM.
Taken in the same sequence, the figures for `Cc1ccc2c(c1)nc(-c1ccccn1)n2CCc1ccccn1` were greater than 347 µM and 83.2 µM.
For `CCN(CC)CCOC(=O)c1cc2ccccc2n1-c1ccccc1`, the EC50 was greater than 200 µM and the IC50 stood at 79.4 µM.
For `Cc1ccc2c3nc4ccccc4c-3csc2c1`, the EC50 is 0.17 µM and the IC50 stood at 0.363 µM.
For the compound `CN(/N=C/c1ccc(Cl)cc1)C1=NCCCCN1`, the EC50 was greater than 200 µM and the IC50 stood at 87.1 µM.
Taken in the same sequence, the figures for `Oc1cc(-c2ccc(Cl)cc2)cn2c1nc1ccccc12` were greater than 200 µM and 9.77 µM.
Consider `Cc1cc(Cl)cc2c1S/C(=C1\Sc3c(C)cc(Cl)cc3C1=O)C2=O`, for which the EC50 was greater than 200 µM and the IC50 was greater than 200 µM.
On to `CC1OC(OCC2OC(Oc3ccc(C4CC(=O)c5c(O)cc(O)cc5O4)cc3O)C(O)C(O)C2O)C(O)C(O)C1O` (centres undefined), for which the EC50 was greater than 200 µM and the IC50 was greater than 200 µM.
Turning to `c1cc2cc(c1)CNCCNCCNCc1cccc(c1)CNCCNCCNC2`, the EC50 is greater than 138 µM and the IC50 amounted to 60.3 µM.
Regarding `CC1OC(OC2C(O)COC(OC3C(C)OC(OC4C(OC(=O)[C@]56CCC(C)(C)C[C@@H]5C5=CCC7[C@@]8(C)C[C@H](O)[C@H](OC9OC(CO)C(O)C(OC%10OC(CO)C(O)C(O)C%10O)C9O)[C@@](C)(CO)[C@@H]8CC[C@@]7(C)[C@]5(C)CC6)OCC(O)C4O)C(O)C3OC3OCC(O)(CO)C3O)C2O)C(O)C(O)C1O` (some centres undefined), the 50% effective concentration (EC50) was greater than 19.1 µM and the 50% inhibitory concentration (IC50) stood at 12.3 µM.
For `C=C(C)C(CC=C(C)C)Cc1c(O)cc(OC)c2c1OC(c1ccc(O)cc1O)C(O)C2=O` (centres undefined), the EC50 is greater than 200 µM and the IC50 turned out to be 29.5 µM.
As for `CCCCC(C(=O)CCC(=O)Nc1ccc(Cl)c(Cl)c1)C(=O)C(C)C` (centres undefined), the EC50 is greater than 324 µM and the IC50 came out at 275 µM.
With `Cc1cc(NS(=O)(=O)c2ccc(N=Nc3c(N)n(C)c(=O)n(C)c3=O)cc2)nc(C)n1`, the EC50 is greater than 200 µM and the IC50 is greater than 200 µM.
In the case of `O=C1N[C@H]2c3c(Cl)sc(Cl)c3[C@@H](O)[C@H]2O1`, the EC50 was greater than 200 µM and the IC50 is greater than 200 µM.
For `CCOc1ccccc1NC(=O)C1=C(C)NC(C)=C(C(=O)Nc2ccccc2OCC)C1c1ccc2c(c1)OCO2`, the EC50 was greater than 12.9 µM and the half-inhibitory concentration (IC50) is greater than 12.9 µM.
With `CN(C)CCCNC(=O)c1cc(NC(=O)c2cc(NC(=O)c3cc(NC(=O)/C=C/C(=O)Nc4cn(C)c(C(=O)Nc5cn(C)c(C(=O)Nc6cn(C)c(C(=O)NCCCN(C)C)n6)n5)n4)cn3C)cn2C)cn1C`, the EC50 was greater than 50.1 µM and the 50% inhibitory concentration (IC50) is greater than 50.1 µM.
